Test results reported in BindingDB's records for doi:10.1021/jm00058a012 (University of Arizona, 1993).
Bridge positions count the residues as written; N and C are the ends. Square brackets hold non-standard residues; d marks the D form. Peptide text beside a SMILES is read from it. Pen = CC(C)(S)[C@H](N)C(=O)O

Tests used:
[1] = Inhibition of [3H]DPDPE binding to delta opioid receptor of guinea pig brain homogenate
[2] = as above; remark: listed apart in the source

Row | SMILES | IC50 [1] [µM] | IC50 [2] [µM]
1 | CC[C@H](C)[C@@H]1NC(=O)[C@H](CCCNC(=N)N)NC(=O)[C@@H](NC(=O)[C@H](CC(C)C)NC(=O)[C@H](Cc2ccccc2)NC(=O)CNC(=O)CNC(=O)[C@@H](N)Cc2ccc(O)cc2)CSSC[C@@H](C(=O)N[C@@H](CCCCN)C(N)=O)NC(=O)[C@H](CCCNC(=N)N)NC1=O [Tyr-Gly-Gly-Phe-leu-c(Cys-Arg-Ile-Arg-Cys)-lys] (H-YGGFLCRIRCK-NH2; disulfide 6-10) | 0.000475 | 
2 | CC[C@H](C)[C@@H]1NC(=O)[C@H](CCCN=C(N)N)NC(=O)[C@H](CCCN=C(N)N)NC(=O)[C@@H](NC(=O)[C@H](Cc2ccccc2)NC(=O)CNC(=O)CNC(=O)[C@@H](N)Cc2ccc(O)cc2)CSSC[C@@H](C(=O)N[C@@H](CCCN=C(N)N)C(=O)N[C@@H](CCCCN)C(N)=O)NC1=O [Tyr-Gly-Gly-Phe-c(Cys-Arg-Arg-Ile-Cys)-Arg-lys] (H-YGGFCRRICRK-NH2; disulfide 5-9) |  | 0.018
3 | CC[C@H](C)[C@@H]1NC(=O)[C@H](CCCNC(=N)N)NC(=O)[C@H](CCCNC(=N)N)NC(=O)[C@@H](NC(=O)[C@H](Cc2ccccc2)NC(=O)CNC(=O)CNC(=O)[C@@H](N)Cc2ccccc2)CSSC[C@@H](C(N)=O)NC(=O)[C@@H]2CCCN2C(=O)[C@H](CCCNC(=N)N)NC1=O [Phe-Gly-Gly-Phe-c(Cys-Arg-Arg-Ile-Arg-Pro-Cys)] (H-FGGFCRRIRPC-NH2; disulfide 5-11) | 0.389 | 
4 | CC[C@H](C)[C@@H]1NC(=O)[C@H](CCCN=C(N)N)NC(=O)[C@H](CCCN=C(N)N)NC(=O)[C@@H](NC(=O)[C@H](Cc2ccccc2)NC(=O)CNC(=O)[C@@H](C)NC(=O)[C@@H](N)Cc2ccc(O)cc2)CSSC[C@@H](C(N)=O)NC(=O)[C@@H]2CCCN2C(=O)[C@H](CCCN=C(N)N)NC1=O [Tyr-(D-ala)-Gly-Phe-c(Cys-Arg-Arg-Ile-Arg-Pro-Cys)] | 0.107 | 
5 | CC(C)C[C@H](NC(=O)[C@H](Cc1ccccc1)NC(=O)CNC(=O)CNC(=O)[C@@H](N)Cc1ccc(O)cc1)C(=O)N[C@@H](CCCN=C(N)N)C(=O)N[C@@H](CCCN=C(N)N)C(=O)N[C@H]1CSSC[C@H](C(N)=O)NC(=O)[C@H](CC(C)C)NC(=O)[C@H](CCCCN)NC(=O)[C@@H]2CCCN2C(=O)[C@H](CCCN=C(N)N)NC1=O [Tyr-Gly-Gly-Phe-Leu-Arg-Arg-c(Cys-Arg-Pro-Lys-Leu-Cys)] | 0.0019 | 
6 | CC[C@H](C)[C@@H]1NC(=O)[C@H](CCCN=C(N)N)NC(=O)[C@H](CCCN=C(N)N)NC(=O)[C@@H](NC(=O)[C@@H]2Cc3ccccc3CN2C(=O)CNC(=O)CNC(=O)[C@@H](N)Cc2ccc(O)cc2)CSSC[C@@H](C(=O)O)NC(=O)[C@@H]2CCCN2C(=O)[C@H](CCCN=C(N)N)NC1=O [Tyr-Gly-Gly-(L-Tic)-c(Cys-Arg-Arg-Ile-Arg-Pro-Cys)] | 0.181 | 
7 | CC[C@H](C)[C@@H]1NC(=O)[C@H](CCCNC(=N)N)NC(=O)[C@H](CCCNC(=N)N)NC(=O)[C@@H](NC(=O)[C@H](Cc2ccccc2)NC(=O)CNC(=O)CNC(=O)[C@@H](N)Cc2ccc(O)cc2)CSSC[C@@H](C(N)=O)NC(=O)[C@H](CC(C)C)NC(=O)[C@H](CCCCN)NC(=O)[C@H]2CCCN2C(=O)[C@H](CCCNC(=N)N)NC1=O [Tyr-Gly-Gly-Phe-c(Cys-Arg-Arg-Ile-Arg-(D-Pro)-Lys-Leu-Cys)] | 0.0096 | 
8 | CC[C@H](C)[C@@H]1NC(=O)[C@H](CCCN=C(N)N)NC(=O)[C@H](CCCN=C(N)N)NC(=O)[C@@H](NC(=O)[C@H](Cc2ccccc2)NC(=O)CNC(=O)CNC(=O)[C@@H](N)Cc2ccc(O)cc2)C(C)(C)SSC[C@@H](C(N)=O)NC(=O)[C@@H]2CCCN2C(=O)[C@H](CCCN=C(N)N)NC1=O [Tyr-Gly-Gly-Phe-c((L-Pen)-Arg-Arg-Ile-Arg-Pro-Cys)] (H-YGGF[Pen]RRIRPC-NH2; disulfide 5-11) | 0.086 | 
9 | CC[C@H](C)[C@H](NC(=O)[C@H](CCCN=C(N)N)NC(=O)[C@H](CCCN=C(N)N)NC(=O)[C@H](CC(C)C)NC(=O)[C@H](Cc1ccccc1)NC(=O)CNC(=O)CNC(=O)[C@@H](N)Cc1ccc(O)cc1)C(=O)N[C@@H](CCCN=C(N)N)C(=O)N1CCC[C@H]1C(=O)N[C@@H](CCCCN)C(=O)N[C@@H](CC(C)C)C(=O)N[C@@H](CCCCN)C(=O)O [Dynorphin A (1-13)] | 0.0041 | 
10 | CC(C)C[C@H](NC(=O)[C@H](Cc1ccccc1)NC(=O)CNC(=O)CNC(=O)[C@@H](N)Cc1ccc(O)cc1)C(=O)N[C@@H](CCCNC(=N)N)C(=O)N[C@@H](CCCNC(=N)N)C(=O)N[C@@H]1CSSC[C@H](C(=O)N[C@@H](CCCCN)C(N)=O)NC(=O)[C@H](CCCCN)NC(=O)[C@@H]2CCCN2C(=O)[C@H](CCCNC(=N)N)NC1=O [Tyr-Gly-Gly-Phe-Leu-Arg-Arg-c((D-Cys)-Arg-Pro-Lys-(D-Cys))-Lys] | 0.0065 | 
11 | CC[C@H](C)[C@@H]1NC(=O)[C@H](CCCN=C(N)N)NC(=O)[C@H](CCCN=C(N)N)NC(=O)[C@@H](NC(=O)[C@H](Cc2ccccc2)NC(=O)CNC(=O)CNC(=O)[C@@H](N)Cc2ccc(O)cc2)CSSC[C@@H](C(=O)N[C@@H](CCCCN)C(N)=O)NC(=O)[C@H](CCCN=C(N)N)NC1=O [Tyr-Gly-Gly-Phe-c(Cys-Arg-Arg-Ile-Arg-Cys)-lys] (H-YGGFCRRIRCK-NH2; disulfide 5-10) | 0.083 | 
12 | CC[C@H](C)[C@@H]1NC(=O)[C@H](CCCN=C(N)N)NC(=O)[C@H](CCCN=C(N)N)NC(=O)[C@@H](NC(=O)[C@H](Cc2ccccc2)NC(=O)CNC(=O)CNC(=O)[C@@H](N)Cc2ccc(O)cc2)CSSC[C@@H](C(=O)N2CCC[C@H]2C(=O)N[C@@H](CCCCN)C(N)=O)NC1=O [Tyr-Gly-Gly-Phe-c(Cys-Arg-Arg-Ile-Cys)-Pro-lys] (H-YGGFCRRICPK-NH2; disulfide 5-9) | 0.031 | 
